How the values were obtained:
NIT-1 cell tumors = assay: Treatment of β-cell adenomas (insulinomas) in vivo, ICR/scid mice injected IP with NIT-1 cells; details: ICR/scid mice with NIT-1 cells; genes via liposomes IP day 31, GCV 40 mg/kg IP seven days
Procedure: To estimate tumor growth blood glucose was measured from the tail vein using a glucometer every other day.
Twenty-seven female ICR/scid mice, age 6-10 weeks old underwent intraperitoneal injections of 5×10^6 NIT-1 cells and nine female ICR/scid mice, age 6-10 weeks old underwent intraperitoneal injections of PBS. At day 31, the mice were randomized to receive either the RIP-tk gene, the RIPlacZ gene, or nothing. The RIP-lac-Z construct served both as a control and to localize gene expression. The genes were delivered via liposomes IP (liposomes provided by Dr. Nancy Smyth-Templeton Center for Gene Therapy and Department of Cell Biology, Baylor College of Medicine) and mixed as described (Smyth-Templeton N, et al., 15 Nature Biotechnology 647-652 (1997)). Six mice were randomized to receive the RIP-tk gene followed by seven days of GCV (40 mg/kg IP). Six mice were randomized to receive the RIP-lacZ gene followed by seven days of GVC (40 mg/kg IP). Six mice were randomized to receive PBS followed by seven days of GCV (40 mg/kg IP). Six mice that were inoculated with NIT-1 cells were randomized to receive seven days of PBS. […]
In another murine hypoglycemic tumor model, 5×10^6 NIT-1 cells (or PBS) were injected intraperitoneally (IP) into ICR/scid mice (n=12 per group). […] Blood glucose values, animal survival, and blue cells after X-gal staining were recorded.

NIT-1 cells = assay: Ganciclovir dose response curve, untransfected cells, MTS assay; type: cell-based, mouse; details: untransfected NIT-1 cells
Procedure: (§1) Dose response curves with GCV for untransfected NIT-1 and F9 (control) cells were performed prior to cytoxicity studies with genetic constructs. NIT-1 cells were plated into a ninety-six well plate at a density of 5,000 cells per well and treated with GCV (0.1 to 2.5 μg/ml) to determine a dose response curve to GCV alone. The cells were treated daily for five days and cell viability was ascertained with an MTS assay. […] The GCV toxicity dose response curve for F9 cells resembled other cell lines (FIG. I B). […] Note that at concentrations of GCV 0.25 μg/ml and higher a significant decrease in cell survival is observed, n=8, *p<0.05, Unpaired Student t-test.

F9 cells = assay: as above; type: cell-based, mouse; details: n=8
Procedure: as §1

PANC-1 tumors = assay: Treatment of human ductal pancreatic adenocarcinoma tumors in vivo, ICR/scid mice injected ip with PANC-1 cells; parameters: species or system mouse; details: PANC-1 tumors in ICR/scid mice, with GCV 40 mg/kg ip 7 days
Procedure: The effectiveness of RIPlacZ and RIP-tk gene constructs against PANC-1 was then studied in vivo using a SCID mouse model. SCID mice are immunodeficient and will not reject a human pancreatic cancer cell line. PANC-1 cells were injected intraperitoneally and tumors were visible by day 24. Once the model was established in the laboratory, the mice were treated with the gene therapy beginning at day 24 post-tumor-injection.
Six mice received seven days of PBS IP.
Three additional mice inoculated with PANC-1 cells received the RIPlacZ gene and were sacrificed thirty-six hours later.
Additional injected mice with tumors (n=3) received RIPlacZ and their tissues were fixed and stained with X-gal. Study endpoints consisted of monitoring tumor size and the presence of blue cells after X-gal staining.

A549 cells = assay: Ganciclovir dose response curve, untransfected cells, MTS assay; type: cell-based, human; details: five days
Procedure: (§2) PANC-1, CAPAN-1 MIA-1 and A549 cells were plated into a ninety-six well plate at a density of 5,000 cells per well and given between 0 to 500 μg/ml of GCV to determine a dose response curve to GCV alone. The cells were treated for five days and cell viability was ascertained with an MTS assay. Results were plotted on a graph as OD 490 nm vs. GCV concentration.

MIA-1 cells = assay: as above; type: cell-based, human; details: untransfected MIA-1 cells, five days
Procedure: as §2

PANC-1 cells = assay: as above; type: cell-based, human; details: untransfected PANC-1 cells
Procedure: as §2

CAPAN-1 cells = assay: as above; type: cell-based, human; details: untransfected CAPAN-1 cells
Procedure: as §2

## Nc1nc(O)c2ncn(COC(CO)CO)c2n1 [GCV, Ganciclovir]
NIT-1 cell tumors
  blood glucose levels: rapid decline in blood glucose levels
NIT-1 cells
  maximum dose of GCV one can use to treat cells in culture: 0.20 µg/mL
F9 cells
  GCV toxicity dose response (in words): resembles that of other published cell lines
PANC-1 tumors
  tumor burden / tumor size (in words): developed large peri-pancreatic intraperitoneal tumors
A549 cells
  GCV dosage significantly decreasing cell OD 490: greater than 50 μg/ml
MIA-1 cells
  GCV dosage significantly decreasing cell OD 490: greater than 20 μg/ml
PANC-1 cells
  maximum dose of GCV one can use to treat cells in culture: 20 µg/mL
PANC-1 cells; five days, n=8
  GCV dosage significantly decreasing cell OD 490: greater than 50 μg/ml
CAPAN-1 cells
  maximum dose of GCV one can use to treat cells in culture: 15 µg/mL
CAPAN-1 cells; five days
  GCV dosage significantly decreasing cell OD 490: greater than 20 μg/ml
